# Experimental data reported in patent US11840686B2, “Modulation of prekallikrein (PKK) expression” (Ionis Pharmaceuticals, Inc., priority 2013, dated 2023).
# Strand notation (5' to 3'): a small letter for the sugar, then the base; units joined by * are phosphorothioate-linked, units joined directly phosphodiester-linked; [ ] holds rarer units or linkages, { } end groups; capitals alone tell only the bases. e = 2'-O-(2-methoxyethyl) (MOE); k = constrained ethyl (cEt); [5mC] = 5-methylcytosine; d = 2'-deoxy (DNA)
# Test system: human PKK mRNA
# Assay: Antisense inhibition of human PKK mRNA in HepaRG cells, 1,000 nM, MOE/deoxy/cEt oligonucleotides (Example 3)
# Assay type: cell-based
# Details: HepaRG cells, electroporation with 1,000 nM antisense oligonucleotide, approximately 24 hours
# Summary of the method: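 Readout is percent PKK mRNA reduction against untreated controls, by real-time PCR (RTS3454) adjusted for total RNA via RIBOGREEN. Oligonucleotides, phosphorothioate gapmers of 16 nucleosides with cEt, MOE and deoxy sugars, were delivered at 1,000 nM by electroporation to 20,000 HepaRG cells/well for roughly 24 h.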
# [1] = primer probe set RTS3454, relative to untreated control cells, experiment of Table 24
# [2] = Table 19, PKK mRNA by RT-PCR (RTS3454), relative to untreated control cells
Substance,% inhibition [1],% inhibition [2]
548063 (eG*eT*kA*dT*dA*dA*dA*dT*dT*dG*dT*dG*d[5mC]*kT*kT*eG; antisense) [compound 548063],35%,
548064 (eT*eG*kG*dT*dA*dT*dA*dA*dA*dT*dT*dG*dT*kG*k[5mC]*eT; antisense) [compound 548064],54%,
548065 (eT*eT*kG*dG*dT*dA*dT*dA*dA*dA*dT*dT*dG*kT*kG*e[5mC]; antisense) [compound 548065],22%,
548067 (e[5mC]*eA*kG*dT*dT*dG*dG*dT*dA*dT*dA*dA*dA*kT*kT*eG; antisense) [compound 548067],18%,
548068 (e[5mC]*eA*kA*d[5mC]*dA*dG*dT*dT*dG*dG*dT*dA*dT*kA*kA*eA; antisense) [compound 548068],0%,
548071 (eA*eG*kA*dA*dG*d[5mC]*d[5mC]*d[5mC]*d[5mC]*dA*dT*d[5mC]*d[5mC]*kG*kG*eT; antisense) [compound 548071],55%,
548072 (eT*eT*kT*d[5mC]*dT*d[5mC]*d[5mC]*dT*dT*d[5mC]*dG*dA*dG*kA*kA*eG; antisense) [compound 548072],33%,
548073 (e[5mC]*eT*kT*dT*d[5mC]*dT*d[5mC]*d[5mC]*dT*dT*d[5mC]*dG*dA*kG*kA*eA; antisense) [compound 548073],24%,
548074 (e[5mC]*e[5mC]*kT*dT*dT*d[5mC]*dT*d[5mC]*d[5mC]*dT*dT*d[5mC]*dG*kA*kG*eA; antisense) [compound 548074],,0%
548075 (eA*e[5mC]*k[5mC]*dT*dT*dT*d[5mC]*dT*d[5mC]*d[5mC]*dT*dT*d[5mC]*kG*kA*eG; antisense) [compound 548075],,0%
548076 (e[5mC]*eA*k[5mC]*d[5mC]*dT*dT*dT*d[5mC]*dT*d[5mC]*d[5mC]*dT*dT*k[5mC]*kG*eA; antisense) [compound 548076],,26%
548077 (eA*eT*kT*dT*dG*dT*dT*dA*d[5mC]*d[5mC]*dA*dA*dA*kG*kG*eA; antisense) [compound 548077],,51%
548078 (eT*e[5mC]*kT*dT*d[5mC]*dA*dT*dT*dT*dG*dT*dT*dA*k[5mC]*k[5mC]*eA; antisense) [compound 548078],,36%
548079 (e[5mC]*e[5mC]*kT*dT*d[5mC]*dT*dT*dT*dA*dT*dA*dG*d[5mC]*k[5mC]*kA*eG; antisense) [compound 548079],,39%
548080 (e[5mC]*e[5mC]*k[5mC]*dT*dT*d[5mC]*dT*dT*dT*dA*dT*dA*dG*k[5mC]*k[5mC]*eA; antisense) [compound 548080],,0%
548081 (e[5mC]*e[5mC]*k[5mC]*d[5mC]*dT*dT*d[5mC]*dT*dT*dT*dA*dT*dA*kG*k[5mC]*e[5mC]; antisense) [compound 548081],,64%
548082 (eA*eA*kG*d[5mC]*dA*dT*d[5mC]*dT*dT*dT*dT*d[5mC]*d[5mC]*k[5mC]*k[5mC]*e[5mC]; antisense) [compound 548082],,42%
548083 (eA*eG*kG*dG*dA*d[5mC]*d[5mC]*dA*d[5mC]*d[5mC]*dT*dG*dA*kA*kT*e[5mC]; antisense) [compound 548083],,0%
548084 (eA*eA*kG*dG*dG*dA*d[5mC]*d[5mC]*dA*d[5mC]*d[5mC]*dT*dG*kA*kA*eT; antisense) [compound 548084],,0%
548085 (antisense eT*eA*kA*dG*dG*dG*dA*d[5mC]*d[5mC]*dA*d[5mC]*d[5mC]*dT*kG*kA*eA) [compound 548085],,8%
548086 (antisense e[5mC]*eT*kA*dA*dG*dG*dG*dA*d[5mC]*d[5mC]*dA*d[5mC]*d[5mC]*kT*kG*eA) [compound 548086],,36%
548087 (antisense eA*e[5mC]*kT*dA*dA*dG*dG*dG*dA*d[5mC]*d[5mC]*dA*d[5mC]*k[5mC]*kT*eG) [compound 548087],,24%
